What was measured:
[1] = background statement; cited from earlier work
[2] = ED50 of alphaxalone (basis of the dose in the histamine test); settings: in vivo
[3] = tested on: histamine content in mouse plasma; assay: Mouse histamine release: plasma histamine content (ELISA) 30 min after intravenous injection; settings: mice
Description: Overall test method: the corresponding solution or formulation was prepared. Administration was performed by intravenous injection, and blood was collected 30 min after administration. After anticoagulation with EDTA, the blood was centrifuged to collect the plasma, and the histamine content in mouse plasma was measured with an ELISA kit.
Blank plasma: blood was directly collected from mice and centrifuged.
Normal saline: normal saline was injected at an administration volume of 5 mL/kg.
Blank fat emulsion (20% medium-long-chain fat emulsion): the administration volume was 5 mL/kg.
SBE-β-CD: the preparation method was: 0.7 mL of 13% SBE-β-CD+4.3 mL of normal saline, and the administration volume was 5 mL/kg. […] Cremophor EL: 0.7 mL of Cremophor EL+4.3 mL of normal saline, the concentration of Cremophor EL was 0.14 mL/mL, the dose was 5 mL/kg, and the dose of Cremophor EL was 0.7 mL/kg.
SBE-β-CD & Cremophor EL: 0.7 mL of 13% SBE-β-CD+0.7 mL of Cremophor EL+3.6 mL of normal saline, and the administration volume was 5 mL/kg.
The administration volume was 3.5 mL/kg, the dose was 7 mg/kg; the administration amount of castor oil was 0.245 mL/kg.

C[C@]12CC[C@@H](O)C[C@@H]1CC[C@H]1[C@@H]3CC[C@H](C(=O)CO)[C@@]3(C)CC(=O)[C@@H]12 [alphadolone]
potency of alphadolone relative to alphaxalone [1]: half

CC(=O)[C@H]1CC[C@H]2[C@@H]3CC[C@H]4C[C@H](O)CC[C@]4(C)[C@H]3C(=O)C[C@]12C [alphaxalone]
ED50 of alphaxalone [2]: about 3.5 mg/kg

sulfobutyl-β-cyclodextrin [SBE-β-CD]
Plasma histamine concentration [3]: 15.28 ± 2.33 ng/mL

Source: patent publication US20260007687A1, “A[…] EMULSION INJECTION AND METHOD FOR PREPARING SAME” (JIANGSU NHWA PHARMACEUTICAL CO., LTD, priority 2022, published 2026)
